# ChEMBL document CHEMBL1201862, “PubChem BioAssay data set” (2004)
#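 Cells were grown in 96-well plates and exposed to each compound for 48 hours at five concentrations; endpoints were interpolated linearly between bracketing concentrations, or set to the highest concentration if not reached. GI50 = concentration required for 50% inhibition of growth.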 Activity calls are given as the source filed them. Rule as the data show it: active = GI50 up to about 1.1 µM and inactive = higher.
# How the values were obtained:
# Assay in all cases: growth of human tumour cells (NCI), 48 h
# SK-MEL-28 = system: SK-MEL-28
# EKVX = system: EKVX
# A549 = system: A549
# IGROV-1 = system: IGROV-1
# HL-60 = system: HL-60
# MCF7 = system: MCF7
# SK-MEL-2 = system: SK-MEL-2
# SR = system: SR
# T47D = system: T47D
# NCI/ADR-RES = system: NCI/ADR-RES
# OVCAR-8 = system: OVCAR-8
# LOX IMVI = system: LOX IMVI
# BT-549 = system: BT-549
# HT-29 = system: HT-29
# CAKI-1 = system: CAKI-1
# Hs-578T = system: Hs-578T
# K562 = system: K562
# RXF 393 = system: RXF 393
# SF-539 = system: SF-539
Compound,GI50 (SK-MEL-28),GI50 (EKVX),GI50 (A549),GI50 (IGROV-1),GI50 (HL-60),GI50 (MCF7),GI50 (SK-MEL-2),GI50 (SR),GI50 (T47D),GI50 (NCI/ADR-RES),GI50 (OVCAR-8),GI50 (LOX IMVI),GI50 (BT-549),GI50 (HT-29),GI50 (CAKI-1),GI50 (Hs-578T),GI50 (K562),GI50 (RXF 393),GI50 (SF-539)
C=CCOc1ccc(C(/N=N\c2ccc(Cl)cc2)=N/NC(=O)c2ccccc2)cc1OC,19 µM (inactive),> 100 µM (inactive),> 100 µM (inactive),43.8 µM (inactive),33.8 µM (inactive),> 100 µM (inactive),> 100 µM (inactive),> 100 µM (inactive),22 µM (inactive),72.4 µM (inactive),37.5 µM (inactive),48 µM (inactive),20.4 µM (inactive),52.7 µM (inactive),> 100 µM (inactive),73.1 µM (inactive),,,
C=CCN(C(=O)CNC(=O)C(F)(F)F)c1cc(OCc2ccccc2)c2c(c1)c(C)cn2S(=O)(=O)c1ccccc1,> 100 µM (inactive),7.71 µM (inactive),7.5 µM (inactive),12.1 µM (inactive),< 0.01 µM (active),7.57 µM (inactive),> 28.5 µM (inactive),,5.93 µM (inactive),> 100 µM (inactive),> 26.8 µM (inactive),16 µM (inactive),> 100 µM (inactive),> 100 µM (inactive),> 31 µM (inactive),> 100 µM (inactive),> 23.9 µM (inactive),5.51 µM (inactive),> 100 µM (inactive)
Cc1ccc(S(=O)(=O)N/N=C2/C3CC4CCC2C4C3)cc1 (stereo not drawn),> 100 µM (inactive),> 100 µM (inactive),> 100 µM (inactive),> 100 µM (inactive),,> 100 µM (inactive),,,> 100 µM (inactive),> 100 µM (inactive),> 100 µM (inactive),> 100 µM (inactive),> 100 µM (inactive),> 100 µM (inactive),> 100 µM (inactive),> 100 µM (inactive),,> 100 µM (inactive),> 100 µM (inactive)
COc1cc2c(cc1OC)C1Cc3ccccc3CCN1CC2 (stereo not drawn),> 100 µM (inactive),> 100 µM (inactive),> 100 µM (inactive),> 100 µM (inactive),> 100 µM (inactive),> 100 µM (inactive),> 100 µM (inactive),92.9 µM (inactive),> 100 µM (inactive),> 100 µM (inactive),> 100 µM (inactive),> 100 µM (inactive),> 100 µM (inactive),48.1 µM (inactive),> 100 µM (inactive),> 100 µM (inactive),62.1 µM (inactive),,> 100 µM (inactive)
Cc1ccc2c(sc(-c3ccc4c(c3)sc(-c3ccc(N(C)C)cc3)[n+]4C)[n+]2C)c1S(=O)(=O)O.Cc1ccc2c(sc(-c3ccc4c(c3)sc(-c3ccc5c(c3)sc(-c3ccc(N(C)C)cc3)[n+]5C)[n+]4C)[n+]2C)c1S(=O)(=O)O,> 100 µM (inactive),76 µM (inactive),> 100 µM (inactive),9.79 µM (inactive),52.8 µM (inactive),> 100 µM (inactive),> 100 µM (inactive),1 µM (active),85.9 µM (inactive),> 100 µM (inactive),> 100 µM (inactive),> 100 µM (inactive),30.8 µM (inactive),> 100 µM (inactive),10 µM (inactive),72.4 µM (inactive),35.5 µM (inactive),,> 100 µM (inactive)
COc1cc(/C=N/n2c(Cc3ccc(Cl)cc3)n[nH]c2=O)cc(OC)c1OC,> 100 µM (inactive),> 100 µM (inactive),> 100 µM (inactive),,,> 100 µM (inactive),> 100 µM (inactive),,> 100 µM (inactive),> 100 µM (inactive),26.5 µM (inactive),,> 100 µM (inactive),> 100 µM (inactive),> 100 µM (inactive),1.32 µM (inactive),> 100 µM (inactive),> 100 µM (inactive),44.8 µM (inactive)
Clc1ccc(CSC2=NCCN2)cc1Cl,18.7 µM (inactive),8.89 µM (inactive),27 µM (inactive),18.9 µM (inactive),10.9 µM (inactive),11.1 µM (inactive),,,7.19 µM (inactive),20.1 µM (inactive),15.9 µM (inactive),13.8 µM (inactive),18.8 µM (inactive),14.2 µM (inactive),11.2 µM (inactive),19.8 µM (inactive),13.5 µM (inactive),14.2 µM (inactive),
COc1cc(C2c3[nH]c4ccccc4c3C[C@H]3COC(=O)N23)cc(OC)c1OC (stereo partly drawn),0.0796 µM (active),< 0.01 µM (active),0.101 µM (active),,0.0336 µM (active),0.0406 µM (active),0.0655 µM (active),0.0373 µM (active),> 10 µM (inactive),,0.178 µM (active),0.0336 µM (active),0.163 µM (active),0.097 µM (active),0.885 µM (active),0.0219 µM (active),0.0349 µM (active),< 0.01 µM (active),0.035 µM (active)
